target: Factor D (Homo sapiens (Human), UniProt P00746); assay: biochemical; type: biochemical; conditions: read-out: IC50
Sequence (P00746 26-253): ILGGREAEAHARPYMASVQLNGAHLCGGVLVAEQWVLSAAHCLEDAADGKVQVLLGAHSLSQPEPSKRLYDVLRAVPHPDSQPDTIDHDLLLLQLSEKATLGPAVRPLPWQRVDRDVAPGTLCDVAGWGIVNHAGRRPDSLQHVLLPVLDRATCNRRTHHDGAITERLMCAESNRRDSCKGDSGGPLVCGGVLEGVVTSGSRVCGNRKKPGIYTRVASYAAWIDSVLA

Question: For `CN(C)C[C@H]1C[C@@H](C(=O)NCc2cccc(Cl)c2F)N(C(=O)Nc2cn(C(N)=O)c3ccccc23)C1` [Example 406, 2S,4R)-4-Dimethylaminomethyl-pyrrolidine-1,2-dicarboxylic acid 1-[(1-carbamoyl-1H-indol-3-yl)-amide]2-(3-chloro-2-fluoro-benzylamide], which IC50 is on record?
Answer: 0.15 µM

Question: For `NC[C@@]1(O)C[C@@H](C(=O)NCc2cccc(Cl)c2F)N(C(=O)Nc2cn(C(N)=O)c3ccccc23)C1` [Example 407, 2S,4S)-4-Aminomethyl-4-hydroxy-pyrrolidine-1,2-dicarboxylic acid 1-[(1-carbamoyl-1H-indol-3-yl)-amide]2-(3-chloro-2-fluoro-benzylamide], which IC50 is on record?
Answer: 1.05 µM

Question: With `NC[C@]1(F)C[C@@H](C(=O)NCc2cccc(Cl)c2F)N(C(=O)Nc2cn(C(N)=O)c3ccccc23)C1` [Example 408, 2S,4R)-4-Aminomethyl-4-fluoro-pyrrolidine-1,2-dicarboxylic acid 1-[(1-carbamoyl-1H-indol-3-yl)-amide]2-(3-chloro-2-fluoro-benzylamide] as the compound, how does the IC50 read?
Answer: 1.4 µM

Question: For `NC[C@@]1(F)C[C@@H](C(=O)NCc2cccc(Cl)c2F)N(C(=O)Nc2cn(C(N)=O)c3ccccc23)C1` [Example 409, 2S,4S)-4-Aminomethyl-4-fluoro-pyrrolidine-1,2-dicarboxylic acid 1-[(1-carbamoyl-1H-indol-3-yl)-amide]2-(3-chloro-2-fluoro-benzylamide], which IC50 is on record?
Answer: 0.025 µM

Question: Which IC50 does the source give for `NC(=O)n1cc(NC(=O)N2C[C@@](F)(CNC=O)C[C@H]2C(=O)NCc2cccc(Cl)c2F)c2ccccc21` [Example 410, 2S,4S)-4-Fluoro-4-formylaminomethyl-pyrrolidine-1,2-dicarboxylic acid 1-[(1-carbamoyl-1H-indol-3-yl)-amide]2-(3-chloro-2-fluoro-benzylamide] here?
Answer: 0.015 µM

Question: With `NC[C@@]1(F)C[C@@H](C(=O)NCc2c(F)ccc(Cl)c2F)N(C(=O)Nc2cn(C(N)=O)c3ccccc23)C1` [Example 411, (2S,4S)-4-aminomethyl-4-fluoro-pyrrolidine-1,2-dicarboxylic acid 1-[(1-carbamoyl-1H-indol-3-yl)-amide]2-(3-chloro-2,6-difluoro-benzylamide)] as the compound, how does the IC50 read?
Answer: 0.026 µM

Question: `CC(=O)n1cc(NC(=O)N2C[C@@](F)(CN)C[C@H]2C(=O)NCc2cccc(Cl)c2F)c2ccccc21` [Example 412, 2S,4S)-4-Aminomethyl-4-fluoro-pyrrolidine-1,2-dicarboxylic acid 1-[(1-acetyl-1H-indol-3-yl)-amide]2-(3-chloro-2-fluoro-benzylamide] was tested. Which IC50 did it give?
Answer: 0.014 µM

Question: For `NC[C@@]1(F)C[C@@H](C(=O)N[C@H](CF)c2cccc(Br)c2)N(C(=O)Nc2cn(C(N)=O)c3ccccc23)C1` [Example 413, (2S,4S)-4-Aminomethyl-4-fluoro-pyrrolidine-1,2-dicarboxylic acid 2-{[(S)-1-(3-bromo-phenyl)-2-fluoro-ethyl]-amide}1-[(1-carbamoyl-1H-indol-3-yl)-amide]], which IC50 is on record?
Answer: 0.101 µM

Question: For `NC[C@@]1(F)C[C@@H](C(=O)Nc2cccc(OC(F)(F)F)c2)N(C(=O)Nc2cn(C(N)=O)c3ccccc23)C1` [Example 414, (2S,4S)-4-Aminomethyl-4-fluoro-pyrrolidine-1,2-dicarboxylic acid 1-[(1-carbamoyl-1H-indol-3-yl)-amide]2-[(3-trifluoromethoxy-phenyl)-amide]], which IC50 is on record?
Answer: 0.311 µM

Question: For `NC(=O)n1cc(NC(=O)N2C[C@H](N)[C@@H](O)[C@H]2C(=O)NCc2cccc(Cl)c2F)c2ccccc21` [Example 416, 2S,3R,4S)-4-Amino-3-hydroxy-pyrrolidine-1,2-dicarboxylic acid 1-[(1-carbamoyl-1H-indol-3-yl)-amide]2-(3-chloro-2-fluoro-benzylamide], which IC50 is on record?
Answer: 0.315 µM

Question: `NC(=O)n1cc(NC(=O)N2CC[C@@H](N)[C@H]2C(=O)NCc2cccc(Cl)c2F)c2ccccc21` [Example 417, 2S,3R)-3-Amino-pyrrolidine-1,2-dicarboxylic acid 1-[(1-carbamoyl-1H-indol-3-yl)-amide]2-(3-chloro-2-fluoro-benzylamide] was tested. Which IC50 did it give?
Answer: 0.04 µM

Question: `NC(=O)n1cc(NC(=O)N2CC[C@@H](N)[C@H]2C(=O)N[C@@H](c2cccc(Cl)c2F)C(F)(F)F)c2ccccc21` [Example 419, (2S,3R)-3-Amino-pyrrolidine-1,2-dicarboxylic acid 1-[(1-carbamoyl-1H-indol-3-yl)-amide]2-{[(S)-1-(3-chloro-2-fluoro-phenyl)-2,2,2-trifluoro-ethyl]-amide}] was tested. Which IC50 did it give?
Answer: 0.476 µM

Question: `NC(=O)n1cc(NC(=O)N2CC[C@H](N)[C@H]2C(=O)NCc2cccc(Cl)c2F)c2ccccc21` [Example 420, 2S,3S)-3-Amino-pyrrolidine-1,2-dicarboxylic acid 1-[(1-carbamoyl-1H-indol-3-yl)-amide]2-(3-chloro-2-fluoro-benzylamide] was tested. Which IC50 did it give?
Answer: 1.15 µM

Question: For `NC(=O)n1cc(NC(=O)N2CC[C@H](N)[C@H]2C(=O)NCc2cccc(Cl)c2)c2ccccc21` [Example 421, 2S,3S)-3-Amino-pyrrolidine-1,2-dicarboxylic acid 1-[(1-carbamoyl-1H-indol-3-yl)-amide]2-(3-chloro-benzylamide], which IC50 is on record?
Answer: 9.3 µM

Question: How did the IC50 turn out when `CNC[C@@]1(F)C[C@@H](C(=O)NCc2cccc(Cl)c2F)N(C(=O)Nc2cn(C(N)=O)c3ccccc23)C1` [Example 424, 2S,4S)-4-Fluoro-4-methylaminomethyl-pyrrolidine-1,2-dicarboxylic acid 1-[(1-carbamoyl-1H-indol-3-yl)-amide]2-(3-chloro-2-fluoro-benzylamide] was run?
Answer: 0.068 µM

Question: `CN[C@H]1C[C@@H](C(=O)NCc2cccc(Cl)c2F)N(C(=O)Nc2cn(C(N)=O)c3ccccc23)C1` [Example 425, 2S,4S)-4-Methylamino-pyrrolidine-1,2-dicarboxylic acid 1-[(1-carbamoyl-1H-indol-3-yl)-amide]2-(3-chloro-2-fluoro-benzylamide] was tested. Which IC50 did it give?
Answer: 1.23 µM

Question: Which IC50 does the source give for `COCCN[C@H]1C[C@@H](C(=O)NCc2cccc(Cl)c2F)N(C(=O)Nc2cn(C(N)=O)c3ccccc23)C1` [Example 426, 2S,4S)-4-(2-Methoxy-ethylamino)-pyrrolidine-1,2-dicarboxylic acid 1-[(1-carbamoyl-1H-indol-3-yl)-amide]2-(3-chloro-2-fluoro-benzylamide] here?
Answer: 0.436 µM

Question: How did the IC50 turn out when `CN(C)[C@H]1C[C@@H](C(=O)NCc2cccc(Cl)c2F)N(C(=O)Nc2cn(C(N)=O)c3ccccc23)C1` [Example 427, 2S,4S)-4-Dimethylamino-pyrrolidine-1,2-dicarboxylic acid 1-[(1-carbamoyl-1H-indol-3-yl)-amide]2-(3-chloro-2-fluoro-benzylamide] was run?
Answer: 0.665 µM

Question: `COC1(OC)C[C@@H](C(=O)NCc2cccc(Cl)c2F)N(C(=O)Nc2cn(C(N)=O)c3ccccc23)C1` [Example 428, S)-4,4-Dimethoxy-pyrrolidine-1,2-dicarboxylic acid 1-[(1-carbamoyl-1H-indol-3-yl)-amide]2-(3-chloro-2-fluoro-benzylamide] was tested. Which IC50 did it give?
Answer: 0.478 µM

Question: With `NC(=O)n1cc(NC(=O)N2C[C@@H](N)[C@H](O)[C@H]2C(=O)NCc2cccc(Cl)c2F)c2ccccc21` [Example 429, 2S,3S,4R)-4-Amino-3-hydroxy-pyrrolidine-1,2-dicarboxylic acid 1-[(1-carbamoyl-1H-indol-3-yl)-amide]2-(3-chloro-2-fluoro-benzylamide] as the compound, how does the IC50 read?
Answer: 1.04 µM

Question: With `NC(=O)n1cc(NC(=O)N2C[C@@H](N)[C@H](F)[C@H]2C(=O)NCc2cccc(Cl)c2F)c2ccccc21` [Example 430, 2R,3S,4R)-4-Amino-3-fluoro-pyrrolidine-1,2-dicarboxylic acid 1-[(1-carbamoyl-1H-indol-3-yl)-amide]2-(3-chloro-2-fluoro-benzylamide] as the compound, how does the IC50 read?
Answer: 0.058 µM

Question: How did the IC50 turn out when `NC(=O)n1cc(NC(=O)N2C[C@H](F)[C@@H](N)[C@H]2C(=O)NCc2cccc(Cl)c2F)c2ccccc21` [Example 431, 2S,3S,4S)-3-Amino-4-fluoro-pyrrolidine-1,2-dicarboxylic acid 1-[(1-carbamoyl-1H-indol-3-yl)-amide]2-(3-chloro-2-fluorobenzylamide] was run?
Answer: 0.031 µM

Question: Which IC50 does the source give for `NC(=O)n1cc(NC(=O)N2NCC[C@H]2C(=O)NCc2cccc(Cl)c2F)c2ccccc21` [Example 432] here?
Answer: 0.007 µM

Question: With `NC(=O)n1cc(NC(=O)N2NCC[C@@H]2C(=O)NCc2cccc(Cl)c2F)c2ccccc21` [Example 433] as the compound, how does the IC50 read?
Answer: 1.79 µM

Question: Which IC50 does the source give for `NC(=O)n1cc(NC(=O)N2NCCC2C(=O)NCc2cccc(Cl)c2)c2ccccc21` (stereo not drawn) [Example 434, Pyrazolidine-1,5-dicarboxylic acid 1-[(1-carbamoyl-1H-indol-3-yl)-amide]5-(3-chloro-benzylamide)] here?
Answer: 0.035 µM

Question: How did the IC50 turn out when `COC(=O)[C@H]1C[C@@H](C(=O)Nc2cccc(OC(F)(F)F)c2F)N(C(=O)Nc2cn(C(N)=O)c3ccccc23)C1` [Example 435, (3S,5S)-1-(1-Carbamoyl-1H-indol-3-ylcarbamoyl)-5-(2-fluoro-3-trifluoromethoxy-phenylcarbamoyl)-pyrrolidine-3-carboxylic acid methyl ester] was run?
Answer: 0.25 µM

Question: Which IC50 does the source give for `NC(=O)n1cc(NC(=O)N2C[C@@H](CO)C[C@H]2C(=O)NCc2c(F)ccc(Cl)c2F)c2ccccc21` [Example 436, 2S,4S)-4-Hydroxymethyl-pyrrolidine-1,2-dicarboxylic acid 1-[(1-carbamoyl-1H-indol-3-yl)-amide]2-(3-chloro-2,6-difluoro-benzylamide] here?
Answer: 0.15 µM

Question: Which IC50 does the source give for `NC(=O)c1cc(Br)cc(NC(=O)[C@@H]2C[C@@H](F)CN2C(=O)Nc2cn(C(N)=O)c3ccccc23)c1` [Example 437, (2S,4R)-4-Fluoro-pyrrolidine-1,2-dicarboxylic acid 2-[(3-bromo-5-carbamoyl-phenyl)-amide]1-[(1-carbamoyl-1H-indol-3-yl)-amide]] here?
Answer: 0.107 µM

Question: `COCCNC(=O)c1cc(Cl)c(F)c(CNC(=O)[C@@H]2C[C@@H](F)CN2C(=O)Nc2cn(C(N)=O)c3ccccc23)c1` [Example 438, (2S,4R)-4-Fluoro-pyrrolidine-1,2-dicarboxylic acid 1-[(1-carbamoyl-1H-indol-3-yl)-amide]2-[3-chloro-2-fluoro-5-(2-methoxy-ethylcarbamoyl)-benzylamide]] was tested. Which IC50 did it give?
Answer: 0.924 µM

Question: Which IC50 does the source give for `CC(C)c1cc(NC(=O)[C@@H]2CCCN2C(=O)Nc2cn(C(N)=O)c3ccccc23)on1` [Example 439, (S)-Pyrrolidine-1,2-dicarboxylic acid 1-[(1-carbamoyl-1H-indol-3-yl)-amide]2-[(3-isopropyl-isoxazol-5-yl)-amide]] here?
Answer: 1.25 µM

From US9085555B2, “Complement pathway modulators and uses thereof” (priority 2011, dated 2015)
